Patent US20240300937A1, “Substituted 6-(Pyrimidin-4-yl)Quinoline Compounds as Cyclin Dependent Kinase Inhibitors” (BeiGene, Ltd., priority 2022, published 2024)

Assays:
[1] = biological target: CDK6/Cyclin D3 (Homo sapiens (Human), UniProt Q00534); test: CDK6/Cyclin D3 kinase TR-FRET inhibition assay; format: biochemical; details: 1 mM ATP, Rb (Ser780)-biotin substrate, read-out: CDK6D3 IC50
Procedure: (§1) Compounds disclosed herein were tested for inhibition of CDK4/Cyclin D1 or CDK6/Cyclin D3 kinase in an assay based on the time-resolved fluorescence-resonance energy transfer (TR-FRET) methodology. The assay was carried out in 384-well low volume black plates in a reaction mixture containing CDK4/Cyclin D1 or CDK6/Cyclin D3, 1 mM ATP, 0.15 μM Rb (Ser780)-biotin substrate and 0-10 μM compound in buffer containing 50 mM HEPES pH7.0, 0.02% NaN3, 0.01% BSA, 0.1 mM Orthovanadate, 50 mM MgCl2, 1 mM DTT and 0.005% Tween-20. The kinase was incubated with compound for 60 minutes at room temperature and the reaction was initiated by the addition of ATP and Rb (Ser780)-biotin substrate. After reaction at room temperature for 120 minutes, an equal volume of stop/detection solution was added according to the manufacture's instruction (Cisbio Bioassays). The stop/detection solution contained Streptavidin-XL665 and Anti-pRb (Ser780) mAb-Eu Cryptate in Detection buffer (Cisbio Bioassays). Plates were incubated at room temperature for 60 minutes, and the TR-FRET signals (ex337 nm, em665 nm/620 nm) were recorded on a PHERAstar FSX plate reader (BMG Labtech). The inhibition percentage of CDK4/Cyclin D1 or CDK6/Cyclin D3 kinase activity in presence of increasing concentrations of compounds was calculated based on the ratio of fluorescence at 665 nm to that at 620 nm. The IC50 for each compound was derived from fitting the data to the four-parameter logistic equation by Dotmatics.

[2] = biological target: CDK4/Cyclin D1 (Homo sapiens (Human), UniProt P11802); test: CDK4/Cyclin D1 kinase TR-FRET inhibition assay; format: biochemical; details: 1 mM ATP, Rb (Ser780)-biotin substrate, read-out: CDK4D1 IC50
Chain of CDK4/Cyclin D1 (P11802 whole entry): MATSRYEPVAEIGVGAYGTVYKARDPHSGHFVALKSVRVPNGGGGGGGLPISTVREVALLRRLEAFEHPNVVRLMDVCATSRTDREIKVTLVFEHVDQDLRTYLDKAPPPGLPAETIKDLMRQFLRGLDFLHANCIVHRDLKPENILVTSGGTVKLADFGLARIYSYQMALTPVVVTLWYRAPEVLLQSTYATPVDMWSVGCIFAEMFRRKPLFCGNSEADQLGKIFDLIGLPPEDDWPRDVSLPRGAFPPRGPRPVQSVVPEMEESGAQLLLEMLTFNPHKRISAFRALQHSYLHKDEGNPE
Chain of CDK4/Cyclin D1 (P24385 whole entry partner): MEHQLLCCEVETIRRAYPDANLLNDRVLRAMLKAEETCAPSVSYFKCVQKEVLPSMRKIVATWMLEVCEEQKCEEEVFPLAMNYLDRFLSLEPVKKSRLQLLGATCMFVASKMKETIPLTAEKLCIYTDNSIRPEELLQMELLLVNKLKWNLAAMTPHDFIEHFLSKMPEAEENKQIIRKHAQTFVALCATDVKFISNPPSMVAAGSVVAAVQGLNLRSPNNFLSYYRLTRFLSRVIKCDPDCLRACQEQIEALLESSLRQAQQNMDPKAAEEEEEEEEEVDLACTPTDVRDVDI
Procedure: as §1

Chain of CDK6/Cyclin D3 (Q00534 whole entry): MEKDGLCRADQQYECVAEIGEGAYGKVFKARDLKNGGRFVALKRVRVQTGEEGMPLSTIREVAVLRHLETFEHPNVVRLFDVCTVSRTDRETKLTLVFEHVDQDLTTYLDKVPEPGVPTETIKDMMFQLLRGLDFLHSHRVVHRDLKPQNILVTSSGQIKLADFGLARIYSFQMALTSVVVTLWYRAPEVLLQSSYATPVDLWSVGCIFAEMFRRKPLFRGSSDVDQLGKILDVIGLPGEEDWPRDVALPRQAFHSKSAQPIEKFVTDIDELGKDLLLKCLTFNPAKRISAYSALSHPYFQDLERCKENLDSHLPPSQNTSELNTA
Chain of CDK6/Cyclin D3 (P30281 whole entry partner): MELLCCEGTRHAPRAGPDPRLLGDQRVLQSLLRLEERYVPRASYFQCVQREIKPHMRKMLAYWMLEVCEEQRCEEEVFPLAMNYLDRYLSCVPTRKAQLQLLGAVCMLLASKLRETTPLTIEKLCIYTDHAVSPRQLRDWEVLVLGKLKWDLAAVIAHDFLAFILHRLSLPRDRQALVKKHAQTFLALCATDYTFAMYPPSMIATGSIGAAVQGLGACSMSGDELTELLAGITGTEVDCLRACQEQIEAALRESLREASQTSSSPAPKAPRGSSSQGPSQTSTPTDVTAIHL

Compound | IC50 [1] [nM] | IC50 [2] [nM]
CC(C)c1c(CO)cnc2c(F)cc(-c3nc(N[C@@H]4CCOC[C@H]4O)ncc3F)cc12 [Example 51, (3S,4R)-4-((5-fluoro-4-(8-fluoro-3-(hydroxymethyl)-4-isopropylquinolin-6-yl)pyrimidin-2-yl)amino)tetrahydro-2H-pyran-3-ol] | 67.2 | 4.2
CC(C)c1c(CNC2CC(F)(F)C2)cnc2c(F)cc(-c3nc(N[C@@H]4CCOC[C@H]4O)ncc3F)cc12 [Example 52, (3S,4R)-4-((4-(3-(((3,3-difluorocyclobutyl)amino)methyl)-8-fluoro-4-isopropylquinolin-6-yl)-5-fluoropyrimidin-2-yl)amino)tetrahydro-2H-pyran-3-ol] | 240 | 10
CC(C)c1c(CN[C@@H]2CCCOC2)cnc2c(F)cc(-c3nc(N[C@@H]4CCOC[C@H]4O)ncc3F)cc12 [Example 53, (3S,4R)-4-((5-fluoro-4-(8-fluoro-4-isopropyl-3-((((R)-tetrahydro-2H-pyran-3-yl)amino)methyl)quinolin-6-yl)pyrimidin-2-yl)amino)tetrahydro-2H-pyran-3-ol] | 348 | 12
CC(C)c1c(CN2C[C@@H](O)[C@H](F)C2)cnc2ccc(-c3nc(N[C@@H]4CCOC[C@H]4O)ncc3F)cc12 [Example 54, (3R,4R)-4-fluoro-1-((6-(5-fluoro-2-(((3S,4R)-3-hydroxytetrahydro-2H-pyran-4-yl)amino)pyrimidin-4-yl)-4-isopropylquinolin-3-yl)methyl)pyrrolidin-3-ol] | 361 | 19
CC(C)c1c([C@H](C)N)cnc2ccc(-c3nc(N[C@@H]4CCOC[C@H]4O)ncc3F)cc12 [Example 55, (3S,4R)-4-((4-(3-((S)-1-aminoethyl)-4-isopropylquinolin-6-yl)-5-fluoropyrimidin-2-yl)amino)tetrahydro-2H-pyran-3-ol] | 1090 | 34
CC(C)c1c([C@@H](C)N)cnc2ccc(-c3nc(N[C@@H]4CCOC[C@H]4O)ncc3F)cc12 [Example 56, (3S,4R)-4-((4-(3-((R)-1-aminoethyl)-4-isopropylquinolin-6-yl)-5-fluoropyrimidin-2-yl)amino)tetrahydro-2H-pyran-3-ol] | 214 | 3.5
CC(C)c1c(CN2CCC[C@H](O)C2)cnc2ccc(-c3nc(N[C@@H]4CCOC[C@H]4O)ncc3F)cc12 [Example 57, (S)-1-((6-(5-fluoro-2-(((3S,4R)-3-hydroxytetrahydro-2H-pyran-4-yl)amino)pyrimidin-4-yl)-4-isopropylquinolin-3-yl)methyl)piperidin-3-ol] | 486 | 18
CC(C)c1c(CN2CCOC[C@H]2C)cnc2ccc(-c3nc(N[C@@H]4CCOC[C@H]4O)ncc3F)cc12 [Example 58, (3S,4R)-4-((5-fluoro-4-(4-isopropyl-3-(((R)-3-methylmorpholino)methyl)quinolin-6-yl)pyrimidin-2-yl)amino)tetrahydro-2H-pyran-3-ol] | 406 | 14
CC(C)c1c(CNc2ccccn2)cnc2ccc(-c3nc(N[C@@H]4CCOC[C@H]4O)ncc3F)cc12 [Example 59, (3S,4R)-4-((5-fluoro-4-(4-isopropyl-3-((pyridin-2-ylamino)methyl)quinolin-6-yl)pyrimidin-2-yl)amino)tetrahydro-2H-pyran-3-ol] | 3590 | 46
CC(C)c1c(CN2C3CCCC2CC(O)C3)cnc2ccc(-c3nc(N[C@@H]4CCOC[C@H]4O)ncc3F)cc12 (stereo partly drawn) [Example 60, (1R,3R,5S)-9-((6-(5-fluoro-2-(((3S,4R)-3-hydroxytetrahydro-2H-pyran-4-yl)amino)pyrimidin-4-yl)-4-isopropylquinolin-3-yl)methyl)-9-azabicyclo[3.3.1]nonan-3-ol] | 585 | 15
CC(C)c1c(CN2CCC[C@H](C#N)C2)cnc2ccc(-c3nc(N[C@@H]4CCOC[C@H]4O)ncc3F)cc12 [Example 61, (S)-1-((6-(5-fluoro-2-(((3S,4R)-3-hydroxytetrahydro-2H-pyran-4-yl)amino)pyrimidin-4-yl)-4-isopropylquinolin-3-yl)methyl)piperidine-3-carbonitrile] | 426 | 8.7
CC(C)c1c(CN2CCC[C@@H](C#N)C2)cnc2ccc(-c3nc(N[C@@H]4CCOC[C@H]4O)ncc3F)cc12 [Example 62, (R)-1-((6-(5-fluoro-2-(((3S,4R)-3-hydroxytetrahydro-2H-pyran-4-yl)amino)pyrimidin-4-yl)-4-isopropylquinolin-3-yl)methyl)piperidine-3-carbonitrile] | 572 | 11
CC(C)c1c(C(C)(C)O)cnc2c(F)cc(-c3nc(N[C@@H]4CCOC[C@H]4O)ncc3F)cc12 [Example 67, (3S,4R)-4-((5-fluoro-4-(8-fluoro-3-(2-hydroxypropan-2-yl)-4-isopropylquinolin-6-yl)pyrimidin-2-yl)amino)tetrahydro-2H-pyran-3-ol] | 42.7 | 2.5
CC(C)c1c(CN2[C@H](C)COC[C@@H]2C)cnc2ccc(-c3nc(N[C@@H]4CCOC[C@H]4O)ncc3F)cc12 [Example 68] | 395 | 8.7
CC(C)c1c(CN2[C@H](C)COC[C@H]2C)cnc2ccc(-c3nc(N[C@@H]4CCOC[C@H]4O)ncc3F)cc12 [Example 69, (3S,4R)-4-((4-(3-(((3R,5R)-3,5-dimethylmorpholino)methyl)-4-isopropylquinolin-6-yl)-5-fluoropyrimidin-2-yl)amino)tetrahydro-2H-pyran-3-ol] | 355 | 8.3
CC(C)c1c(C(C)(C)O)cnc2cc(Cl)c(-c3nc(N[C@@H]4CCOC[C@H]4O)ncc3F)cc12 [Example 70, (3S,4R)-4-((4-(7-chloro-3-(2-hydroxypropan-2-yl)4-isopropylquinolin-6-yl)-5-fluoropyrimidin-2-yl)amino)tetrahydro-2H-pyran-3-ol] | 508 | 31
CC(C)c1c(C(C)(C)O)cnc2cc(F)c(-c3nc(N[C@@H]4CCOC[C@H]4O)ncc3F)cc12 [Example 116, (3S,4R)-4-((5-fluoro-4-(7-fluoro-3-(2-hydroxypropan-2-yl)-4-isopropylquinolin-6-yl)pyrimidin-2-yl)amino)tetrahydro-2H-pyran-3-ol] | 198 | 10.9
CC(C)c1c(C(C)(C)O)cnc2c(F)cc(-c3nc(N[C@@H]4CCOC[C@H]4O)ncc3Cl)cc12 [Example 117, (3S,4R)-4-((5-chloro-4-(8-fluoro-3-(2-hydroxypropan-2-yl)-4-isopropylquinolin-6-yl)pyrimidin-2-yl)amino)tetrahydro-2H-pyran-3-ol] | 54 | 2.1
Cc1c(-c2nc(N[C@@H]3CCOC[C@H]3O)ncc2F)ccc2ncc(CO)c(C(C)C)c12 [Example 120, (3S,4R)-4-((5-fluoro-4-(3-(hydroxymethyl)-4-isopropyl-5-methylquinolin-6-yl)pyrimidin-2-yl)amino)tetrahydro-2H-pyran-3-ol] | 149 | 23.5
Cc1c(-c2nc(N[C@@H]3CCOC[C@H]3O)ncc2F)ccc2ncc(CN)c(C(C)C)c12 [Example 145, (3S,4R)-4-((4-(3-(aminomethyl)-4-isopropyl-5-methylquinolin-6-yl)-5-fluoropyrimidin-2-yl)amino)tetrahydro-2H-pyran-3-ol] | 66.1 | 1.7
CC(C)c1cc(C(C)(C)O)nc2ccc(-c3nc(N[C@@H]4CCOC[C@H]4O)ncc3F)cc12 [Example 206, (3S,4R)-4-((5-fluoro-4-(2-(2-hydroxypropan-2-yl)-4-isopropylquinolin-6-yl)pyrimidin-2-yl)amino)tetrahydro-2H-pyran-3-ol] | 1500 | 185
CC(C)c1nc(C(C)(C)O)nc2ccc(-c3nc(N[C@@H]4CCOC[C@H]4O)ncc3F)cc12 [Example 207, (3S,4R)-4-((5-fluoro-4-(2-(2-hydroxypropan-2-yl)-4-isopropylquinazolin-6-yl)pyrimidin-2-yl)amino)tetrahydro-2H-pyran-3-ol] | 3020 | 536
CC(C)c1cc(C(C)(C)O)nc2c(F)cc(-c3nc(N[C@@H]4CCOC[C@H]4O)ncc3Cl)cc12 [Example 208, (3S,4R)-4-((5-chloro-4-(8-fluoro-2-(2-hydroxypropan-2-yl)-4-isopropylquinolin-6-yl)pyrimidin-2-yl)amino)tetrahydro-2H-pyran-3-ol] | 497 | 146
CC(C)c1nc(C(C)(C)O)nc2c(F)cc(-c3nc(N[C@@H]4CCOC[C@H]4O)ncc3Cl)cc12 [Example 209, (3S,4R)-4-((5-chloro-4-(8-fluoro-2-(2-hydroxypropan-2-yl)-4-isopropylquinazolin-6-yl)pyrimidin-2-yl)amino)tetrahydro-2H-pyran-3-ol] | 4990 | 1770
